# Assay results taken from ChEMBL document CHEMBL1201862, “PubChem BioAssay data set” (2004).
# Calls of active or inactive are those of the source.
# How the values were obtained:
# Format in all cases: functional
# [1] = target: T1, Endoribonuclease toxin MazF (Escherichia coli K-12, UniProt P0AE70); test: fluorescent RNA oligo signal without MazF, dose response, counter-screen for MazEF activator project, biochemical, fluorescence, single-stranded RNase substrate (AID 588502)
# T1 sequence (P0AE70 whole entry): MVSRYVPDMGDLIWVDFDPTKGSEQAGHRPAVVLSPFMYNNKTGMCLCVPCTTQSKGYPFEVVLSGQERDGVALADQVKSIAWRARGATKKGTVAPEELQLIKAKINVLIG
# [2] = target: T1, Endoribonuclease toxin MazF; test: MazF toxin RNase activators, dose response, biochemical, fluorescence, single-stranded RNA substrate, uHTS hits (AID 588481)
# [3] = intracellular Trypanosoma cruzi inhibitors in host cells – cell-based, plate reader, cherry-pick samples, set 3, dose response (AID 651818);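 also: compounds incubated with infected cells for about four days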
# [4] = Luminescence Cell-Based Dose Retest to Confirm Inhibitors of Cancer Stem Cells. [Related pubchem assays (depositor defined):AID2717, AID2721]; settings: Homo sapiens
# [5] = target: T2, Carboxy-terminal domain RNA polymerase II polypeptide A small phosphatase 1 (Homo sapiens, UniProt Q9GZU7); test: inhibitors of CTDSP1, concentration-response testing, biochemical assay, absorbance-based, actives from ultra-high-throughput screening (AID 540297)
# T2 sequence (Q9GZU7 whole entry): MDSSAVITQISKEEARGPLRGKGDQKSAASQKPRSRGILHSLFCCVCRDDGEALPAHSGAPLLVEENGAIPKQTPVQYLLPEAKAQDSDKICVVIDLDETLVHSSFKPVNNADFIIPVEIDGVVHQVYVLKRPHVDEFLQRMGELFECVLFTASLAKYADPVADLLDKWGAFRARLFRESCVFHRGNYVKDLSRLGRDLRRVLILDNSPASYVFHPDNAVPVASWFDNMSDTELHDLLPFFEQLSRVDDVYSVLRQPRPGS
structure (smiles),measurement,setting,value
CCOC(=O)[C@H]1[C@H]2COc3ccccc3[C@@H]2N2C(=O)CN(Cc3ccc(C)cc3)C(=O)[C@@]12C,EC50,[1],> 99 µM (inactive)
same,EC50,[2],> 99 µM (inactive)
CCCCN1CC(=O)N2[C@@H]3c4cc(Br)ccc4OC[C@@H]3[C@H](C(=O)OCC)[C@]2(C)C1=O,EC50,[1],39.6 µM (inactive)
same,EC50,[2],> 99 µM (inactive)
C[C@H](CO)N1C[C@H](C)[C@@H](CN(C)Cc2ccc(C(F)(F)F)cc2)Oc2ccc(NS(=O)(=O)c3ccc(F)cc3)cc2C1=O,AC50,[3],3.48 µM (active)
C[C@@H]1CCCCO[C@@H](CN(C)Cc2ccc(C(=O)Nc3ccccc3N)cc2)[C@@H](C)CN([C@H](C)CO)C(=O)c2cc(NS(C)(=O)=O)ccc2O1,AC50,[3],4.5 µM (active)
C[C@@H]1CN([C@H](C)CO)C(=O)c2cccc(NC(=O)Nc3ccc(C(F)(F)F)cc3)c2O[C@@H]1CN(C)Cc1ccc(Oc2ccccc2)cc1,AC50,[3],7.23 µM (active)
C[C@@H]1CN([C@H](C)CO)C(=O)c2cc(NC(=O)Nc3cccc4ccccc34)ccc2O[C@@H]1CN(C)Cc1ccc(C(F)(F)F)cc1,AC50,[3],2.44 µM (active)
COc1ccc(NC(=O)Nc2ccc3c(c2)CC(=O)N([C@H](C)CO)C[C@@H](C)[C@@H](CN(C)Cc2ccc(C(=O)Nc4ccccc4N)cc2)O3)cc1,AC50,[3],2.16 µM (active)
O=[N+]([O-])c1cccc(-c2csc(N/N=C/c3cccc(O)c3)n2)c1,AC50,[4],2.8 µM (active)
same,IC50,[5],10.8 µM (active)
